According to US20220235065A1 (Epizyme, Inc., priority 2016, published 2022):

Assays:
EHMT1 = target: T1, EHMT1 (Homo sapiens, UniProt Q9H9B1); assay: EHMT1 PEP (EHMT1 peptide enzyme assay); format: biochemical; settings: peptide substrate enzyme assay
T1 sequence (Q9H9B1 1-1298): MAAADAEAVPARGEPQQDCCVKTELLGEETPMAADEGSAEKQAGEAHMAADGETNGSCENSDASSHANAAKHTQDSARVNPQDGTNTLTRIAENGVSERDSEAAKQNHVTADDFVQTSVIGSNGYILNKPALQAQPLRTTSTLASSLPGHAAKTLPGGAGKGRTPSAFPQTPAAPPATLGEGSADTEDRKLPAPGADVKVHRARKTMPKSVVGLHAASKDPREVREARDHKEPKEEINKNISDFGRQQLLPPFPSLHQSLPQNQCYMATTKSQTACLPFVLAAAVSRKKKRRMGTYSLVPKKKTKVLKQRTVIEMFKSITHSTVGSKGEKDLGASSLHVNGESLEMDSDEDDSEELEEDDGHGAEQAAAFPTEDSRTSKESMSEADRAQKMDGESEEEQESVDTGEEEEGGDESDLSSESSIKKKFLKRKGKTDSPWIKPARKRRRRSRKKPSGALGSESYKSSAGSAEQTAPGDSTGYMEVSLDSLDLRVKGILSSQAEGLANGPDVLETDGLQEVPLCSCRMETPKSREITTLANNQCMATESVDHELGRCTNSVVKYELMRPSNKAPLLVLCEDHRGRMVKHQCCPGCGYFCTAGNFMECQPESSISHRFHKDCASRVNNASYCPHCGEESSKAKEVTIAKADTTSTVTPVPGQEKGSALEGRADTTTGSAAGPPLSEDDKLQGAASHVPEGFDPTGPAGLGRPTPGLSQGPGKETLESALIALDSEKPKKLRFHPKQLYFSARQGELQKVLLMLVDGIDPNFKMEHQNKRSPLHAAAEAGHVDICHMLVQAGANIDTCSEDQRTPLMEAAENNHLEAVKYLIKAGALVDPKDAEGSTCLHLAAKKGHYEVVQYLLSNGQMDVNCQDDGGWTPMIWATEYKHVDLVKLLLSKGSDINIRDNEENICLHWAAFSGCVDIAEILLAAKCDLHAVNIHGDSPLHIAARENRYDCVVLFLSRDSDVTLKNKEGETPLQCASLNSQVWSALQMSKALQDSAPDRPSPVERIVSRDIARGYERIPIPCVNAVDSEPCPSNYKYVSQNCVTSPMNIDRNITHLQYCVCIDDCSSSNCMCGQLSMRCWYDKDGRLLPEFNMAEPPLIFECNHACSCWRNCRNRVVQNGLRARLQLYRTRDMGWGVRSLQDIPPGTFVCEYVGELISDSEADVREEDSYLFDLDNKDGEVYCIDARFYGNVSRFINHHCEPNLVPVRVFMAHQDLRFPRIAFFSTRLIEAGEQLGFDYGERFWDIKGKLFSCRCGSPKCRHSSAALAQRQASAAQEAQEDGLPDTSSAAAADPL

[1] = test system: H3K9me2 in MDA-MB-231 cells; assay: MDA-MB-231 H3K9me2 in-cell western assay; format: cell-based; settings: Homo sapiens, read-out: EHMT2 ICW (IC50 μM)
Description: MDA-MB-231 cell line was purchased from ATCC (Manassas, Va., USA). RPMI/Glutamax medium, Penicillin-Streptomycin, Heat Inactivated Fetal Bovine Serum, and D-PBS were purchased from Life Technologies (Grand Island, N.Y., USA). Odyssey blocking buffer, 800CW goat anti-mouse IgG (H+L) antibody, and Licor Odyssey Infrared Scanner were purchased from Licor Biosciences, Lincoln, Nebr., USA. H3K9me2 mouse monoclonal antibody (Cat #1220) was purchased from Abcam (Cambridge, Mass., USA). 16% Paraformaldehyde was purchased from Electron Microscopy Sciences, Hatfield, Pa., USA). MDA-MB-231 cells were maintained in complete growth medium (RPMI supplemented with 10% v/v heat inactivated fetal bovine serum) and cultured at 37° C. under 5% CO2. UNC0638 was purchased from Sigma-Aldrich (St. Louis, Mo., USA).
General Procedure for MDA-MB-231 HEK9me2 In-Cell Western Assay.
Compound (100 nL) was added directly to 384-well cell plate. MDA-MB-231 cells (ATCC) were seeded in assay medium (RPMI/Glutamax supplemented with 10% v/v heat inactivated fetal bovine serum and 1% Penicillin/Streptomycin, Life Technologies) at a concentration of 3,000 cells per well to a Poly-D-Lysine coated 384-well cell culture plate with 50 μL per well. Plates were incubated at 37° C., 5% CO2 for 48 hours (BD Biosciences 356697). Plates were incubated at room temperature for 30 minutes and then incubated at 37° C., 5% CO2 for additional 48 hours. After the incubation, 50 μL per well of 8% paraformaldehyde (Electron Microscopy Sciences) in PBS was added to the plates and incubated at room temperature for 20 minutes. Plates were transferred to a Biotek 406 plate washer and washed 2 times with 100 μL per well of wash buffer (1×PBS containing 0.3% Triton X-100 (v/v)). Next, 60 μL per well of Odyssey blocking buffer (Licor Biosciences) was added to each plate and incubated for 1 hour at room temperature. Blocking buffer was removed and 20 μL of monoclonal primary antibody α-H3K9me2 (Abcam) diluted 1:800 in Odyssey buffer with 0.1% Tween 20 (v/v) were added and plates were incubated overnight (16 hours) at 4° C. Plates were washed 5 times with 100 μL per well of wash buffer. Next 20 μL per well of secondary antibody was added (1:500 800CW […] anti-mouse IgG (H+L) antibody (Licor Biosciences), 1:1000 DRAQ5 (Cell Signaling Technology) in Odyssey buffer with 0.1% Tween 20 (v/v)) and incubated for 1 hour at room temperature. The plates were washed 5 times with 100 μL per well wash buffer then 2 times with 100 μL per well of water. Plates were allowed to dry at room temperature then imaged on a Licor Odyssey Infrared Scanner (Licor Biosciences) which measured integrated intensity at 700 nm and 800 nm wavelengths. Both 700 and 800 channels were scanned.
% Inhibition Calculation.
First, the ratio for each well was determined by
Each plate included fourteen control wells of DMSO only treatment (Minimum Inhibition) as well as fourteen control wells (background wells) for maximum inhibition treated with control compound UNC0638 (Background wells).
The average of the ratio values for each well was calculated and used to determine the percent inhibition for each test well in the plate. Control compound was serially diluted three-fold in DMSO for a total of 10 test concentrations beginning at 1 μM. Percent inhibition was calculated as: […]
IC50 curves were generated using triplicate wells per concentration of compound. The IC50 is the concentration of compound at which measured methylation is inhibited by 50% as interpolated from the dose response curves. IC50 values were calculated using a non-linear regression (variable slope-four parameter fit model) with by the following formula
where Top is fixed at 100% and Bottom is fixed to 0%, [I]=concentration of inhibitor, IC50=half maximal inhibitory concentration and n=Hill Slope.

CNc1cc(C)nc(Nc2ccc(OC)c(-c3cn4ccnc4cn3)c2)n1 [Compound 234]
IC50 (EHMT1): 0.1 to 1 µM | IC50 [1]: 1 to 10 µM

CNc1cc(C)nc(Nc2ccc(OC)c(-c3cc4cnoc4cn3)c2)n1 [Compound 235]
IC50 (EHMT1): > 10 µM | IC50 [1]: > 10 µM

COc1cc(NC2CCNCC2)ccc1-c1cc(C2CC2)cnn1 [Compound 236]
IC50 (EHMT1): > 10 µM | IC50 [1]: > 10 µM

CNc1cc(C)nc(Nc2ccc(OC)c(-c3cc4[nH]ccc4c(C)n3)c2)n1 [Compound 237]
IC50 (EHMT1): < 0.1 µM | IC50 [1]: 0.1 to 1 µM

CNC1=Nc2cc(-c3[nH]c4cnccc4c3C)c(OC)cc2C12CCC2 [Compound 238, 5′-methoxy-N-methyl-6′-(3-methyl-1H-pyrrolo[2,3-c]pyridin-2-yl)spiro[cyclobutane-1,3′-indol]-2′-amine]
IC50 (EHMT1): < 0.1 µM | IC50 [1]: < 0.1 µM

CNc1cc(C)nc(Nc2ccc(C)c(C(=O)Nc3cccnc3)c2)n1 [Compound 239]
IC50 (EHMT1): > 10 µM | IC50 [1]: > 10 µM

CNc1cc(C)nc(Nc2ccc(Cl)c(C(=O)Nc3cccnc3)c2)n1 [Compound 240]
IC50 (EHMT1): 1 to 10 µM | IC50 [1]: > 10 µM

CNc1cc(C)nc(Nc2ccc(C)c(-c3cc4ccncc4[nH]3)c2)n1 [Compound 241]
IC50 (EHMT1): < 0.1 µM | IC50 [1]: 0.1 to 1 µM

CNc1cc(C)nc(Nc2cccc(C(=O)Nc3cccnc3)c2)n1 [Compound 242]
IC50 (EHMT1): > 10 µM | IC50 [1]: > 10 µM
